SMILES strings stand for the structures.

This note sets out measurements from BindingDB's records for doi:10.1021/jm0494974 (Institute, 2005).

For this assay, the target named is Tubulin beta-2B chain (UniProt Q6B856). Nature of the assay: Binding affinity against tubulin from goat brain relative to colchicine.
Tubulin beta-2B chain, sequence (Q6B856 whole entry): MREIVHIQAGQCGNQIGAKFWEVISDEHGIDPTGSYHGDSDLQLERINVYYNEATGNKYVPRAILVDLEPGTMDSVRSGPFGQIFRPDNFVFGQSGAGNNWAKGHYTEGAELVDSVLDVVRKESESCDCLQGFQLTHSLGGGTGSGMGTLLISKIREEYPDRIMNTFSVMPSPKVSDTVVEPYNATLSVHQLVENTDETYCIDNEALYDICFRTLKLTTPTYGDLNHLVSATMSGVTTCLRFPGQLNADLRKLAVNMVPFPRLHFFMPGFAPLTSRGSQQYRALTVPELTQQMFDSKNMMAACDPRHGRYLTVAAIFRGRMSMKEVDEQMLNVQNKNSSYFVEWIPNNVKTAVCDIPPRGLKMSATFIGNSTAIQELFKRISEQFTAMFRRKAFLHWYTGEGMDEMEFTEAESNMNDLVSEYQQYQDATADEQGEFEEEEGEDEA
On to `COc1ccc(S(=O)(=O)Nc2cccc3cc[nH]c23)cc1` [N-(1H-Indol-7-yl)-4-methoxy-benzenesulfonamide], for which the Ki was determined as 14 µM. In other words, the double-digit micromolar range. `COc1ccc(S(=O)(=O)Nc2cccc3cc(Cl)[nH]c23)cc1` [N-(2-Chloro-1H-indol-7-yl)-4-methoxy-benzenesulfonamide] came in with a Ki of 28 µM. The same measure for `COc1ccc(S(=O)(=O)Nc2cccc3c(Cl)c[nH]c23)cc1` [N-(3-Chloro-1H-indol-7-yl)-4-methoxy-benzenesulfonamide]: 14 µM; for `COc1ccc(S(=O)(=O)Nc2ccc(Cl)c3cc[nH]c23)cc1` [N-(4-Chloro-1H-indol-7-yl)-4-methoxy-benzenesulfonamide]: 14 µM.

The molecule `COc1ccc(S(=O)(=O)Nc2cc(Cl)cc3cc[nH]c23)cc1` [N-(5-Chloro-1H-indol-7-yl)-4-methoxy-benzenesulfonamide] showed a Ki of 7 µM.

What is called Ki is the dissociation constant of the complex between target and ligand, obtained from inhibition or displacement.
